# Laboratory results reported in patent US20120079993A1, “B[…]” (UNIVERSITY OF DURHAM, priority 2010, published 2012).
# How the values were obtained:
# Balb/c mice = assay: Open space anxiety test: elevated platform with steep slopes; conditions: amphetamine 5 and 10 mg/kg vs diazepam 0.5, 1 and 3 mg/kg
# mouse or rat = assay: Elevated platform at 75 cm height: falling from the platform and locomotion; assay type: in vivo; conditions: 0.2 mg/kg i.p.; platform at 75 cm height
# Text: Most mice and rats do jump onto the ground when the platform is raised by 50 cm but not when it is raised by about 75 cm. […] If a manipulation does induce jumping onto or falling on the ground, the experiment cannot be continued with the group of animals displaying this behaviour. Lower the doses if using drugs. One can prevent animals from sliding from the platform by using a ledge (not higher than 0.5 cm height) on each side adjacent to the void space. […] At 100 cm height, the test is more anxiogenic (3) and it is likely to cancel its sensitivity to experimental manipulations. Because of animal welfare regulations, it is advised that a soft carpet (polyethylene foam map about 3-5 cm thick) is laid on the ground beneath the slopes. It is preferable that it is grey or dark unicolor and covers all the visible areas of the floor within the curtain perimeter that surrounds the test apparatus.
Structure (SMILES),number of crossings on the platform (motor activity) in amphetamine treated mice compared to diazepam treated mice (Balb/c mice),number of crossings on the platform (motor activity) in amphetamine treated mice compared to diazepam treated mice (Balb/c mice; listed as Amphetamine),effect on locomotion (mouse or rat),falling from the platform (mouse or rat)
CC(N)Cc1ccccc1 (stereo not shown) [amphetamine],double,at least two-fold,–,–
C[C@]12N[C@H](Cc3ccccc31)c1ccccc12 [MK-801],–,–,"induced uncoordinated, unsteady locomotion",falling from the platform
